± gives the expanded uncertainty stated by the source.

For data set [1] the following is noted: 101 kPa, Liquid, Pycnometric method.
The nature of data set [2]: xn = mol fraction of the nth substance listed. The note with it: 101 kPa, Liquid, Pycnometric method, x2 = 0.

For `Cc1ccccc1C` [1,2-dimethylbenzene], the mass density in data set [1] (288.15 K) is 884.09 ± 0.22 kg/m3; in data set [1] (293.15 K), 879.83 ± 0.21 kg/m3; in data set [1] (298.15 K), 875.57 ± 0.22 kg/m3; in data set [1] (303.15 K) it was 871.31 ± 0.23 kg/m3; in data set [1] (308.15 K) it was 867.05 ± 0.24 kg/m3; in data set [1] (313.15 K) it was 862.79 ± 0.25 kg/m3. For the same compound, the mass density in data set [1] (318.15 K) came to 858.53 ± 0.26 kg/m3.

As to `Cc1ccccc1C` [1,2-dimethylbenzene] + C=CC(=O)OCCCC, the mass density in data set [2] (288.15 K) stood at 884.09 ± 0.22 kg/m3; in data set [2] (293.15 K), 879.83 ± 0.21 kg/m3; in data set [2] (298.15 K), 875.57 ± 0.22 kg/m3; in data set [2] (303.15 K), 871.31 ± 0.23 kg/m3; in data set [2] (308.15 K), 867.05 ± 0.24 kg/m3; in data set [2] (313.15 K) it was 862.79 ± 0.25 kg/m3. In addition, in data set [2] (318.15 K), the mass density is 858.53 ± 0.26 kg/m3.

Consider `Cc1cc(C)cc(C)c1` [1,3,5-trimethylbenzene], for which the mass density is on record as 869.28 ± 0.24 kg/m3 in data set [1] (288.15 K); 865.37 ± 0.23 kg/m3 in data set [1] (293.15 K); 861.45 ± 0.24 kg/m3 in data set [1] (298.15 K); 857.54 ± 0.25 kg/m3 in data set [1] (303.15 K); 853.63 ± 0.26 kg/m3 in data set [1] (308.15 K); 849.71 ± 0.27 kg/m3 in data set [1] (313.15 K). Also, in data set [1] (318.15 K), the mass density turned out to be 845.8 ± 0.28 kg/m3.

`Cc1cc(C)cc(C)c1` [1,3,5-trimethylbenzene] + C=CC(=O)OCCCC: the mass density stood at 869.28 ± 0.24 kg/m3 in data set [2] (288.15 K); 865.37 ± 0.23 kg/m3 in data set [2] (293.15 K); 861.45 ± 0.24 kg/m3 in data set [2] (298.15 K); 857.54 ± 0.25 kg/m3 in data set [2] (303.15 K); 853.63 ± 0.26 kg/m3 in data set [2] (308.15 K); 849.71 ± 0.27 kg/m3 in data set [2] (313.15 K). In addition, the mass density in data set [2] (318.15 K) is given as 845.8 ± 0.28 kg/m3.

On to `Cc1cccc(C)c1` [1,3-dimethylbenzene], for which the mass density is given as 868.59 ± 0.22 kg/m3 in data set [1] (288.15 K); 864.31 ± 0.21 kg/m3 in data set [1] (293.15 K); 860.02 ± 0.22 kg/m3 in data set [1] (298.15 K); 855.74 ± 0.23 kg/m3 in data set [1] (303.15 K); 851.45 ± 0.24 kg/m3 in data set [1] (308.15 K); 847.17 ± 0.25 kg/m3 in data set [1] (313.15 K). Moreover, the mass density in data set [1] (318.15 K) amounted to 842.88 ± 0.26 kg/m3.

For `Cc1cccc(C)c1` [1,3-dimethylbenzene] + C=CC(=O)OCCCC, the mass density was found to be 868.59 ± 0.22 kg/m3 in data set [2] (288.15 K); 864.31 ± 0.21 kg/m3 in data set [2] (293.15 K); 860.02 ± 0.22 kg/m3 in data set [2] (298.15 K); 855.74 ± 0.23 kg/m3 in data set [2] (303.15 K); 851.45 ± 0.24 kg/m3 in data set [2] (308.15 K); 847.17 ± 0.25 kg/m3 in data set [2] (313.15 K). Also, the mass density in data set [2] (318.15 K) was found to be 842.88 ± 0.26 kg/m3.

Regarding `Cc1ccc(C)cc1` [1,4-dimethylbenzene], the mass density in data set [1] (288.15 K) was found to be 865.52 ± 0.22 kg/m3; in data set [1] (293.15 K), 861.17 ± 0.2 kg/m3; in data set [1] (298.15 K), 856.82 ± 0.21 kg/m3; in data set [1] (303.15 K), 852.47 ± 0.22 kg/m3; in data set [1] (308.15 K), 848.12 ± 0.23 kg/m3; in data set [1] (313.15 K), 843.77 ± 0.24 kg/m3. For the same compound, the mass density in data set [1] (318.15 K) was 839.42 ± 0.25 kg/m3.

For `Cc1ccc(C)cc1` [1,4-dimethylbenzene] + C=CC(=O)OCCCC, the mass density in data set [2] (288.15 K) worked out at 865.52 ± 0.22 kg/m3; in data set [2] (293.15 K), 861.17 ± 0.2 kg/m3; in data set [2] (298.15 K), 856.82 ± 0.21 kg/m3; in data set [2] (303.15 K), 852.47 ± 0.22 kg/m3; in data set [2] (308.15 K) it was 848.12 ± 0.23 kg/m3; in data set [2] (313.15 K), 843.77 ± 0.24 kg/m3. Also, the mass density in data set [2] (318.15 K) was determined as 839.42 ± 0.25 kg/m3.

Take `c1ccccc1` [benzene]: the mass density in data set [1] (288.15 K) was 884.3 ± 0.22 kg/m3; in data set [1] (293.15 K), 878.95 ± 0.2 kg/m3; in data set [1] (298.15 K), 873.61 ± 0.21 kg/m3; in data set [1] (303.15 K) it was 868.26 ± 0.22 kg/m3; in data set [1] (308.15 K), 862.9 ± 0.23 kg/m3; in data set [1] (313.15 K), 857.56 ± 0.24 kg/m3. Moreover, the mass density in data set [1] (318.15 K) is given as 852.23 ± 0.25 kg/m3.

Take `c1ccccc1` [benzene] + C=CC(=O)OCCCC: the mass density in data set [2] (288.15 K) is listed as 884.3 ± 0.22 kg/m3; in data set [2] (293.15 K), 878.95 ± 0.2 kg/m3; in data set [2] (298.15 K) it was 873.61 ± 0.21 kg/m3; in data set [2] (303.15 K), 868.26 ± 0.22 kg/m3; in data set [2] (308.15 K), 862.9 ± 0.23 kg/m3; in data set [2] (313.15 K), 857.56 ± 0.24 kg/m3. Further, the mass density in data set [2] (318.15 K) worked out at 852.23 ± 0.25 kg/m3.

On to `C=CC(=O)OCCCC` [butyl 2-propenoate], for which the mass density in data set [1] (288.15 K) is reported as 903.6 ± 0.27 kg/m3; in data set [1] (293.15 K), 898.85 ± 0.26 kg/m3; in data set [1] (298.15 K) it was 894.1 ± 0.27 kg/m3; in data set [1] (303.15 K) it was 889.35 ± 0.28 kg/m3; in data set [1] (308.15 K) it was 884.6 ± 0.29 kg/m3; in data set [1] (313.15 K) it was 879.85 ± 0.3 kg/m3. For the same compound, the mass density in data set [1] (318.15 K) is recorded as 875.1 ± 0.31 kg/m3.

With `Cc1ccccc1` [toluene], the mass density in data set [1] (288.15 K) came to 871.79 ± 0.21 kg/m3; in data set [1] (293.15 K), 867.08 ± 0.2 kg/m3; in data set [1] (298.15 K), 862.36 ± 0.21 kg/m3; in data set [1] (303.15 K) it was 857.64 ± 0.22 kg/m3; in data set [1] (308.15 K) it was 852.93 ± 0.23 kg/m3; in data set [1] (313.15 K), 848.21 ± 0.24 kg/m3. In addition, the mass density in data set [1] (318.15 K) is 843.49 ± 0.25 kg/m3.

For `Cc1ccccc1` [toluene] + C=CC(=O)OCCCC, the mass density in data set [2] (288.15 K) was determined as 871.79 ± 0.21 kg/m3; in data set [2] (293.15 K), 867.08 ± 0.2 kg/m3; in data set [2] (298.15 K), 862.36 ± 0.21 kg/m3; in data set [2] (303.15 K) it was 857.64 ± 0.22 kg/m3; in data set [2] (308.15 K), 852.93 ± 0.23 kg/m3; in data set [2] (313.15 K), 848.21 ± 0.24 kg/m3. In data set [2] (318.15 K), the mass density came out at 843.49 ± 0.25 kg/m3.

Source of the values: the NIST ThermoML archive (doi:10.1007/s10765-010-0768-y).
